In patent US10118947B2, “Modulation of structured polypeptide specificity” (BICYCLE THERAPEUTICS LIMITED, priority 2013, dated 2018):
Read-outs that look alike come from different tables or passages of the source. Numbered stars: 1 amine (or outer) side, 2 acyl side, 3 side chain; on linkers, the order of the positions; unused ones are H or OH. Bridge positions count the residues as written; N and C are the ends. Square brackets hold non-standard residues; d marks the D form. Peptide text beside a SMILES is read from it. TBMB = c1c(C[*:1])cc(C[*:3])cc1C[*:2]; NMeH = CN[C@@H](Cc1c[nH]cn1)C(=O)O; NMeQ = CN[C@@H](CCC(N)=O)C(=O)O; NMeD = CN[C@@H](CC(=O)O)C(=O)O; NMeL = CN[C@@H](CC(C)C)C(=O)O

Columns and labels:
[1] = Plasma stability / fragment profiling Method #2 (MALDI-TOF, 95% plasma), human plasma; assay type: in vitro ADME; conditions: peptide fragments observed after incubation in human plasma
Protocol: To obtain stability data more rapidly, peptides were also assessed in 95% plasma. Here, PBS was omitted, and a 1 mM peptide stock (in DMSO) was directly diluted into plasma (i.e. 2.5 uL stock into 47.5 uL plasma), giving a final concentration of 50 uM. 5 uL samples were taken at appropriate time points and frozen at −80 deg C. For analysis, the samples were defrosted, mixed with 15 uL of 1:1 acetonitrile:methanol, and centrifuged at 13 k for 5 min. 5 uL of the peptide-containing supernatant was aspirated and mixed with 30 mM ammonium bicarbonate in a 1:1 mixture of acetonitrile:H2O. 1 uL of this was then spotted on the MALDI plate and analysed as described above. As above, it should be noted that this is a qualitative assay serves to detect relative changes in plasma stability.
Ac-06-34-18(TMB)-NH2 Phe2 Tyr4 (referred to as wild type peptide) was subsequently subjected to human plasma, and analysed for fragments to appear over time. This was compared to the degradation profile observed in human plasma using the NMe-Arg5 derivative of 06-34-18 (FIGS. 18a and 18b). Fragmentation was determined according to Method #2.

human plasma Kallikrein = target: T1, human plasma Kallikrein (Homo sapiens, UniProt P03952); experiment: Functional enzyme inhibition assay with fluorogenic substrate Z-PheArg-AMC, human plasma Kallikrein; assay type: biochemical; conditions: for Ki: read-out: Ki
T1 construct: purchased Stratech, UK
T1 sequence (P03952 20-638): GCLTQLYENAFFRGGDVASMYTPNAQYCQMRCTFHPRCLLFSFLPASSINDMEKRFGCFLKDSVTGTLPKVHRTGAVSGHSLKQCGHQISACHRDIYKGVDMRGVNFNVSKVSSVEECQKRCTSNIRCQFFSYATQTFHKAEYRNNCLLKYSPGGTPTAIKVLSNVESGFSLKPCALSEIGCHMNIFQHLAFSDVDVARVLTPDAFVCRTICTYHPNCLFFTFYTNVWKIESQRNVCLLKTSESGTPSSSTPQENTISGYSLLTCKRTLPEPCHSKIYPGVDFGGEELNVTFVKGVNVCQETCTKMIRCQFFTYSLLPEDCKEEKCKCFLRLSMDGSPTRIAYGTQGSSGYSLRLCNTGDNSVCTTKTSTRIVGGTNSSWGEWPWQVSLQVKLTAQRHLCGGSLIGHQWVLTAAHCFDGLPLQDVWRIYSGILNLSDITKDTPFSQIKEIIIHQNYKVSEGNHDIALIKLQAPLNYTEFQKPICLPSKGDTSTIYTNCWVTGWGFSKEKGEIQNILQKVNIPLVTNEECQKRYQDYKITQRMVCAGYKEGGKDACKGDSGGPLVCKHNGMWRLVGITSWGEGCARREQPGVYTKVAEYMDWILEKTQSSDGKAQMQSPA
How it was run: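 Human plasma kallikrein at 26.5 pM was preincubated 15 minutes with test peptide in Tris/NaCl/MgCl2/CaCl2/BSA buffer pH7.4 at 25° C, then Z-PheArg-AMC added to 100 μM final in 4% DMSO.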

[2] = Table 25a, fold change of Ki of variant compared to WT
[3] = Table 25a, α-N-methyl amino acid scan in Loop2, human plasma kallikrein
[4] = Table 3a, Alanine scan in Loop2
[5] = Table 3a, ratio of Ki to wild type
[6] = Table 3b, D-amino acid scan in Loop2
[7] = Table 3b, ratio of Ki to wild type

Row | Compound | Fragments (human plasma) ([1]; Table 25a) | F (Kivar/KiWT) (human plasma Kallikrein; [2]) | Ki (human plasma Kallikrein; [3]) [nM] | Fragments (human plasma) ([1]; Table 3a) | Ki (human plasma Kallikrein; [4]) [nM] | F (Kivar/KiWT) (human plasma Kallikrein; [5]) | other results
1 | CC(=O)N[C@H]1CSCc2cc3cc(c2)CSC[C@H](NC(=O)[C@H](CCCNC(=N)N)NC(=O)[C@H](Cc2ccc(O)cc2)NC(=O)[C@@H]2CCCN2C(=O)[C@H](Cc2ccccc2)NC(=O)[C@H](CO)NC1=O)C(=O)N[C@@H](C)C(=O)N[C@@H](Cc1c[nH]cn1)C(=O)N[C@@H](CCC(N)=O)C(=O)N[C@@H](CC(=O)O)C(=O)N[C@@H](CC(C)C)C(=O)N[C@H](C(N)=O)CSC3 [Ac-(06-34-18) Phe2 Tyr4 Ala6] (Ac-CSFPYRCAHQDLC-NH2; linker 1-7-13 via TBMB) |  |  |  | -LHQ, -R | 1.9 | 5 | 
2 | CC(=O)N[C@H]1CSCc2cc3cc(c2)CSC[C@H](NC(=O)[C@H](CCCNC(=N)N)NC(=O)[C@H](Cc2ccc(O)cc2)NC(=O)[C@@H]2CCCN2C(=O)[C@H](Cc2ccccc2)NC(=O)[C@H](CO)NC1=O)C(=O)N[C@@H](CC(C)C)C(=O)N[C@@H](C)C(=O)N[C@@H](CCC(N)=O)C(=O)N[C@@H](CC(=O)O)C(=O)N[C@@H](CC(C)C)C(=O)N[C@H](C(N)=O)CSC3 [Ac-(06-34-18) Phe2 Tyr4 Ala7] (Ac-CSFPYRCLAQDLC-NH2; linker 1-7-13 via TBMB) |  |  |  | -R | 23.4 | 56 | Kd (human plasma Kallikrein): 23 nM; reduction in potency/affinity compared to wildtype (human plasma Kallikrein): 56 fold
3 | CC(=O)N[C@H]1CSCc2cc3cc(c2)CSC[C@H](NC(=O)[C@H](CCCNC(=N)N)NC(=O)[C@H](Cc2ccc(O)cc2)NC(=O)[C@@H]2CCCN2C(=O)[C@H](Cc2ccccc2)NC(=O)[C@H](CO)NC1=O)C(=O)N[C@@H](CC(C)C)C(=O)N[C@H](Cc1c[nH]cn1)C(=O)N[C@@H](CCC(N)=O)C(=O)N[C@@H](CC(=O)O)C(=O)N[C@@H](CC(C)C)C(=O)N[C@H](C(N)=O)CSC3 [Ac-(06-34-18) Phe2 Tyr4 D-His7] (Ac-CSFPYRCL[dH]QDLC-NH2; linker 1-7-13 via TBMB) |  |  |  |  |  |  | Fragments (human plasma) ([1]; Table 3b): -R, -FPYR; Ki (human plasma Kallikrein; [6]): 129 nM; F (Kivar/KiWT) (human plasma Kallikrein; [7]): 308
4 | CC(=O)N[C@H]1CSCc2cc3cc(c2)CSC[C@H](NC(=O)[C@H](CCCNC(=N)N)NC(=O)[C@H](Cc2ccc(O)cc2)NC(=O)[C@@H]2CCCN2C(=O)[C@H](Cc2ccccc2)NC(=O)[C@H](CO)NC1=O)C(=O)N[C@@H](CC(C)C)C(=O)N[C@@H](Cc1c[nH]cn1)C(=O)N[C@@H](CCC(N)=O)C(=O)N[C@@H](C)C(=O)N[C@@H](CC(C)C)C(=O)N[C@H](C(N)=O)CSC3 [Ac-(06-34-18) Phe2 Tyr4 Ala9] (Ac-CSFPYRCLHQALC-NH2; linker 1-7-13 via TBMB) |  |  |  | -LHQDL, -R | 1.58 | 4 | 
5 | CC(=O)N[C@H]1CSCc2cc3cc(c2)CSC[C@H](NC(=O)[C@H](CCCNC(=N)N)NC(=O)[C@H](Cc2ccc(O)cc2)NC(=O)[C@@H]2CCCN2C(=O)[C@H](Cc2ccccc2)NC(=O)[C@H](CO)NC1=O)C(=O)N[C@H](CC(C)C)C(=O)N[C@@H](Cc1c[nH]cn1)C(=O)N[C@@H](CCC(N)=O)C(=O)N[C@@H](CC(=O)O)C(=O)N[C@@H](CC(C)C)C(=O)N[C@H](C(N)=O)CSC3 [Ac-(06-34-18) Phe2 Tyr4 D-Leu6] (Ac-CSFPYRC[dL]HQDLC-NH2; linker 1-7-13 via TBMB) |  |  |  |  |  |  | Fragments (human plasma) ([1]; Table 3b): -R, -FPYR; Ki (human plasma Kallikrein; [6]): 9080 nM; F (Kivar/KiWT) (human plasma Kallikrein; [7]): 21615
6 | CC(=O)N[C@H]1CSCc2cc3cc(c2)CSC[C@H](NC(=O)[C@H](CCCNC(=N)N)NC(=O)[C@H](Cc2ccc(O)cc2)NC(=O)[C@@H]2CCCN2C(=O)[C@H](Cc2ccccc2)NC(=O)[C@H](CO)NC1=O)C(=O)N[C@@H](CC(C)C)C(=O)N[C@@H](Cc1c[nH]cn1)C(=O)N[C@H](CCC(N)=O)C(=O)N[C@@H](CC(=O)O)C(=O)N[C@@H](CC(C)C)C(=O)N[C@H](C(N)=O)CSC3 [Ac-(06-34-18) Phe2 Tyr4 D-Gln8] (Ac-CSFPYRCLH[dQ]DLC-NH2; linker 1-7-13 via TBMB) |  |  |  |  |  |  | Fragments (human plasma) ([1]; Table 3b): -R, -FPYR; Ki (human plasma Kallikrein; [6]): 317 nM; F (Kivar/KiWT) (human plasma Kallikrein; [7]): 755
7 | CC(=O)N[C@H]1CSCc2cc3cc(c2)CSC[C@H](NC(=O)[C@H](CCCNC(=N)N)NC(=O)[C@H](Cc2ccc(O)cc2)NC(=O)[C@@H]2CCCN2C(=O)[C@H](Cc2ccccc2)NC(=O)[C@H](CO)NC1=O)C(=O)N[C@@H](CC(C)C)C(=O)N[C@@H](Cc1c[nH]cn1)C(=O)N[C@@H](CCC(N)=O)C(=O)N[C@@H](CC(=O)O)C(=O)N[C@@H](C)C(=O)N[C@H](C(N)=O)CSC3 [Ac-(06-34-18) Phe2 Tyr4 Ala10] (Ac-CSFPYRCLHQDAC-NH2; linker 1-7-13 via TBMB) |  |  |  | -LHQ, -LHQDL, -R | 13.5 | 32 | 
8 | CC(=O)N[C@H]1CSCc2cc3cc(c2)CSC[C@H](NC(=O)[C@H](CCCNC(=N)N)NC(=O)[C@H](Cc2ccc(O)cc2)NC(=O)[C@@H]2CCCN2C(=O)[C@H](Cc2ccccc2)NC(=O)[C@H](CO)NC1=O)C(=O)N[C@@H](CC(C)C)C(=O)N[C@@H](Cc1c[nH]cn1)C(=O)N[C@@H](C)C(=O)N[C@@H](CC(=O)O)C(=O)N[C@@H](CC(C)C)C(=O)N[C@H](C(N)=O)CSC3 [Ac-(06-34-18) Phe2 Tyr4 Ala8] (Ac-CSFPYRCLHADLC-NH2; linker 1-7-13 via TBMB) |  |  |  | -LHQ, -R | 1.74 | 4 | 
9 | CC(=O)N[C@H]1CSCc2cc3cc(c2)CSC[C@H](NC(=O)[C@H](CCCNC(=N)N)NC(=O)[C@H](Cc2ccc(O)cc2)NC(=O)[C@@H]2CCCN2C(=O)[C@H](Cc2ccccc2)NC(=O)[C@H](CO)NC1=O)C(=O)N[C@@H](CC(C)C)C(=O)N[C@@H](Cc1c[nH]cn1)C(=O)N[C@@H](CCC(N)=O)C(=O)N[C@@H](CC(=O)O)C(=O)N[C@H](CC(C)C)C(=O)N[C@H](C(N)=O)CSC3 [Ac-(06-34-18) Phe2 Tyr4 D-Leu10] (Ac-CSFPYRCLHQD[dL]C-NH2; linker 1-7-13 via TBMB) |  |  |  |  |  |  | Fragments (human plasma) ([1]; Table 3b): -R, -FPYR; Ki (human plasma Kallikrein; [6]): 416 nM; F (Kivar/KiWT) (human plasma Kallikrein; [7]): 990

Continued, in another order:

Row | Fragments (human plasma) ([1]; Table 25a) | F (Kivar/KiWT) (human plasma Kallikrein; [2]) | Ki (human plasma Kallikrein; [3]) [nM] | Fragments (human plasma) ([1]; Table 3a) | Ki (human plasma Kallikrein; [4]) [nM] | F (Kivar/KiWT) (human plasma Kallikrein; [5]) | Compound | other results
10 | -R, -FPYR | 137 | 57.4 |  |  |  | CC(=O)N[C@H]1CSCc2cc3cc(c2)CSC[C@H](NC(=O)[C@H](CCCNC(=N)N)NC(=O)[C@H](Cc2ccc(O)cc2)NC(=O)[C@@H]2CCCN2C(=O)[C@H](Cc2ccccc2)NC(=O)[C@H](CO)NC1=O)C(=O)N(C)[C@@H](CC(C)C)C(=O)N[C@@H](Cc1c[nH]cn1)C(=O)N[C@@H](CCC(N)=O)C(=O)N[C@@H](CC(=O)O)C(=O)N[C@@H](CC(C)C)C(=O)N[C@H](C(N)=O)CSC3 [Ac-(06-34-18) Phe2 Tyr4 NMe-Leu6] (Ac-CSFPYRC[NMeL]HQDLC-NH2; linker 1-7-13 via TBMB) | 
11 | -R, -FPYR | 105 | 44.3 |  |  |  | CC(=O)N[C@H]1CSCc2cc3cc(c2)CSC[C@H](NC(=O)[C@H](CCCNC(=N)N)NC(=O)[C@H](Cc2ccc(O)cc2)NC(=O)[C@@H]2CCCN2C(=O)[C@H](Cc2ccccc2)NC(=O)[C@H](CO)NC1=O)C(=O)N[C@@H](CC(C)C)C(=O)N[C@@H](Cc1c[nH]cn1)C(=O)N[C@@H](CCC(N)=O)C(=O)N(C)[C@@H](CC(=O)O)C(=O)N[C@@H](CC(C)C)C(=O)N[C@H](C(N)=O)CSC3 [Ac-(06-34-18) Phe2 Tyr4 NMe-Asp9] (Ac-CSFPYRCLHQ[NMeD]LC-NH2; linker 1-7-13 via TBMB) | 
12 | -R, -FPYR | 149 | 62.8 |  |  |  | CC(=O)N[C@H]1CSCc2cc3cc(c2)CSC[C@H](NC(=O)[C@H](CCCNC(=N)N)NC(=O)[C@H](Cc2ccc(O)cc2)NC(=O)[C@@H]2CCCN2C(=O)[C@H](Cc2ccccc2)NC(=O)[C@H](CO)NC1=O)C(=O)N[C@@H](CC(C)C)C(=O)N[C@@H](Cc1c[nH]cn1)C(=O)N(C)[C@@H](CCC(N)=O)C(=O)N[C@@H](CC(=O)O)C(=O)N[C@@H](CC(C)C)C(=O)N[C@H](C(N)=O)CSC3 [Ac-(06-34-18) Phe2 Tyr4 NMe-Gln8] (Ac-CSFPYRCLH[NMeQ]DLC-NH2; linker 1-7-13 via TBMB) | 
13 | -R, -FPYR | 151 | 63.5 |  |  |  | CC(=O)N[C@H]1CSCc2cc3cc(c2)CSC[C@H](NC(=O)[C@H](CCCNC(=N)N)NC(=O)[C@H](Cc2ccc(O)cc2)NC(=O)[C@@H]2CCCN2C(=O)[C@H](Cc2ccccc2)NC(=O)[C@H](CO)NC1=O)C(=O)N[C@@H](CC(C)C)C(=O)N(C)[C@@H](Cc1cnc[nH]1)C(=O)N[C@@H](CCC(N)=O)C(=O)N[C@@H](CC(=O)O)C(=O)N[C@@H](CC(C)C)C(=O)N[C@H](C(N)=O)CSC3 [Ac-(06-34-18) Phe2 Tyr4 NMe-His7] (Ac-CSFPYRCL[NMeH]QDLC-NH2; linker 1-7-13 via TBMB) | 
14 | -R, -FPYR | 1396 | 586 |  |  |  | CC(=O)N[C@H]1CSCc2cc3cc(c2)CSC[C@H](NC(=O)[C@H](CCCNC(=N)N)NC(=O)[C@H](Cc2ccc(O)cc2)NC(=O)[C@@H]2CCCN2C(=O)[C@H](Cc2ccccc2)NC(=O)[C@H](CO)NC1=O)C(=O)N[C@@H](CC(C)C)C(=O)N[C@@H](Cc1c[nH]cn1)C(=O)N[C@@H](CCC(N)=O)C(=O)N[C@@H](CC(=O)O)C(=O)N(C)[C@@H](CC(C)C)C(=O)N[C@H](C(N)=O)CSC3 [Ac-(06-34-18) Phe2 Tyr4 NMe-Leu10] (Ac-CSFPYRCLHQD[NMeL]C-NH2; linker 1-7-13 via TBMB) | 
